The target of this test is T1, recombinant human mGluR4a receptors (Homo sapiens, UniProt Q14833).
T1 construct: expressed in transfected cells
Kind of test: Fluorescent cell based Ca2+ mobilization assay (FLIPR) on HEK-293 cells expressing human mGluR4. Particulars: positive allosteric modulation in presence of EC25 glutamate; HEK-293 hmGluR4; mean of at least three independent experiments in duplicate; read-out: Ca^2+ Flux (mean EC50). From the text: mGluR4 Assay on HEK-Expressing Human mGluR4
The compounds of the present invention are positive allosteric modulators of mGluR4 receptor. Their activity was examined on recombinant human mGluR4a receptors by detecting changes in intracellular Ca^2+concentration, using the fluorescent Ca^2+-sensitive dye Fluo4-(AM) and a Fluorometric Imaging Plate Reader (FLIPR, Molecular Devices, Sunnyvale, Calif.).
The cDNA encoding the human metabotropic glutamate receptor (hmGluR4), (accession number NM_000841.1, NCBI Nucleotide database browser), was subcloned into an expression vector containing also the hygromycin resistance gene. In parallel, the cDNA encoding a G protein allowing redirection of the activation signal to intracellular calcium flux was subcloned into a different expression vector containing also the puromycin resistance gene. Transfection of both these vectors into HEK293 cells with PolyFect reagent (Qiagen) according to supplier's protocol, and hygromycin and puromycin treatment allowed selection of antibiotic resistant cells which had integrated stably one or more copies of the plasmids. Positive cellular clones expressing hmGluR4 were identified in a functional assay measuring changes in calcium fluxes in response to glutamate or selective known mGluR4 orthosteric agonists and antagonists.
HEK-293 cells expressing hmGluR4 were maintained in media containing DMEM, dialyzed Fetal Calf Serum (10%), Glutamax™ (2 mM), Penicillin (100 units/mL), Streptomycin (100 μg/mL), Geneticin (100 μg/mL) and Hygromycin-B (40 μg/mL) and puromycin (1 μg/mL) at 37° C./5% CO2.
Human mGluR4 HEK-293 cells were plated out 24 hours prior to FLIPR^384 assay in black-walled, clear-bottomed, poly-L-ornithine-coated 384-well plates at a density of 25,000 cells/well in a glutamine/glutamate free DMEM medium containing foetal bovine serum (10%), penicillin (100 units/mL) and streptomycin (100 μg/mL) at 37° C./5% CO2.
On the day of the assay, the medium was aspirated and the cells were loaded with a 3 μM solution of Fluo4-AM (LuBioScience, Lucerne, Switzerland) in 0.03% pluronic acid. After 1 hour at 37° C./5% CO2, the non incorporated dye was removed by washing cell plate with the assay buffer and the cells were left in the dark at room temperature for […] before testing. All assays were performed in a pH=7.4 buffered-solution containing 20 mM HEPES, 143 mM NaCl, 6 mM KCl, 1 mM MgSO4, 1 mM CaCl2, 0.125 mM sulfapyrazone and 0.1% glucose.
After 10 s of basal fluorescence recording, various concentrations of the compounds of the invention were added to the cells. Changes in fluorescence levels were first monitored for 180 s in order to detect any agonist activity of the compounds. Then the cells were stimulated by an EC25 glutamate concentration for an additional 110 s in order to measure enhancing activities of the compounds of the invention. EC25 glutamate concentration is the concentration giving 25% of the maximal glutamate response.
The concentration-response curves of representative compounds of the present invention were generated using the Prism GraphPad software (Graph Pad Inc, San Diego, USA). The curves were fitted to a four-parameter logistic equation:
(Y=Bottom+(Top−Bottom)/(1+10̂((LogEC50−X)*Hill Slope)
allowing the determination of EC50 values.
The Table 3 below represents the mean EC50 obtained from at least three independent experiments of selected molecules performed in duplicate.

One may read the pEC50 as −log10 of the EC50, conventionally taken in molar units.

pEC50: −log10 of the molar value. Bounds are passed on as bounds.

T1 sequence (Q14833 33-912): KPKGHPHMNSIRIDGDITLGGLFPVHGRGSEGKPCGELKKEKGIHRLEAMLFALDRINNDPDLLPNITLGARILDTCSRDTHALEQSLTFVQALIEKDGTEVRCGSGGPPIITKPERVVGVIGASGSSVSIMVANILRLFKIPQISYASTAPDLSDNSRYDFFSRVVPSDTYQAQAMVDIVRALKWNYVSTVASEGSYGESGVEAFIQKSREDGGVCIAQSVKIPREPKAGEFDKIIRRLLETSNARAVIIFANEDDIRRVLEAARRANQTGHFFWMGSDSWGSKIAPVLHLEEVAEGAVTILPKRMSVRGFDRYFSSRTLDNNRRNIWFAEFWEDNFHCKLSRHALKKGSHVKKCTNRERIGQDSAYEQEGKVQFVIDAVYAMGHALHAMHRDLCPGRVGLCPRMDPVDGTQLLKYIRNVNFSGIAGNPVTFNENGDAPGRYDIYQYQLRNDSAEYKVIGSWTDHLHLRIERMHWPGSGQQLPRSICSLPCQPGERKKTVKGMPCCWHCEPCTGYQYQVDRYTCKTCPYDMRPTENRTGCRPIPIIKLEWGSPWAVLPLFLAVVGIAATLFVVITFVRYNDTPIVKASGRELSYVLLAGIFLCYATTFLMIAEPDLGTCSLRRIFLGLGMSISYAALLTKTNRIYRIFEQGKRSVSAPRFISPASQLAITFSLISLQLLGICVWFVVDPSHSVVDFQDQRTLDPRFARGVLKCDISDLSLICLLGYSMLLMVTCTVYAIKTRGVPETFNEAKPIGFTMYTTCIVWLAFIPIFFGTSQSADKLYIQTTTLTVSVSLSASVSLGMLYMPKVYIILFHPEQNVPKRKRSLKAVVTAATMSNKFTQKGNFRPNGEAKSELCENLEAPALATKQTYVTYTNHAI

Regarding `Cc1nc(Nc2nc3c(s2)C(=O)CCc2n[nH]cc2-3)ncc1F` [Compound 1-30, 2-(5-Fluoro-4-methyl-pyrimidin-2-ylamino)-6,8-dihydro-5H-3-thia-1,7,8-triaza-cyclopenta[e]azulen-4-one], the pEC50 was 5.00 to 6.00.
Turning to `Cc1ccnc(Nc2nc3c(s2)COC(c2ccccn2)c2[nH]ncc2-3)n1` (stereo not shown) [Compound 1-31, (4-Methyl-pyrimidin-2-yl)-(6-pyridin-2-yl-6,7-dihydro-4H-5-oxa-3-thia-1,7,8-triaza-cyclopenta[e]azulen-2-yl)-amine], the pEC50 is greater than 7.00.
With “(6-Isopropyl-6,7-dihydro-4H-5-oxa-3-thia-1,7,8-triaza-cyclopenta[e]azulen-2-yl)-(5-methyl-[1,2,4]thiadiazol-3-yl)-amine [Compound 1-25]”, the pEC50 is 6.00 to 7.00.
Take “Dimethyl-carbamic acid 2-(4-methyl-pyrimidin-2-ylamino)-4,5,6,6a,7,8-hexahydro-3-thia-1,7,8-triaza-cyclopenta[e]azulen-5-yl ester [Compound 1-6]”: the pEC50 was 6.00 to 7.00.

These data come from patent publication US20130252944A1, “NOVEL FUSED PYRAZOLE DERIVATIVES AND THEIR USE AS ALLOSTERIC MODULATORS OF METABOTROPIC GLUTAMATE RECEPTORS” (priority 2010, published 2013).
